Assay results from the supplement of paper PMC10307832.

Experiments:
Experiment in all cases: relative viability (nuclei count vs DMSO), 5 days (fraction); higher = more cells survive
[1] = compound: O=C(Nc1c[nH]nc1-c1nc2ccc(CN3CCOCC3)cc2[nH]1)NC1CC1 [AT9283] + C[C@@H](Oc1cc(-c2cnn(C3CCNCC3)c2)cnc1N)c1c(Cl)ccc(F)c1Cl [Crizotinib] (partner 1 µM)
In short: (§1)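 The day after seeding in 1536-well plates, lung cancer cell lines were treated by pin tool with a single drug, or with a fixed anchor-drug dose together with five library-drug doses (not always all listed) in √10 steps. After 5 days, a combined fix-and-stain solution (final 0.05% Triton X-100, 1% formaldehyde, 1 ug/ml Hoechst) was added. Nuclei counted on 4× images gave relative viability as treated counts over vehicle counts, reported as the median of duplicate plates.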

[2] = compound: C#Cc1cccc(Nc2ncnc3cc(OCCOC)c(OCCOC)cc23)c1 [Erlotinib] + CC1(C)CCC(c2ccc(Cl)cc2)=C(CN2CCN(c3ccc(C(=O)NS(=O)(=O)c4ccc(N[C@H](CCN5CCOCC5)CSc5ccccc5)c(S(=O)(=O)C(F)(F)F)c4)cc3)CC2)C1 [Navitoclax] (partner 0.5 µM)
In short: as §1

[3] = compound: O=C(Nc1c[nH]nc1-c1nc2ccc(CN3CCOCC3)cc2[nH]1)NC1CC1 [AT9283] + N=C(N)NC(=N)NCCc1ccccc1 [Phenformin] (partner 250 µM)
In short: as §1

[4] = compound: O=C(Nc1c[nH]nc1-c1nc2ccc(CN3CCOCC3)cc2[nH]1)NC1CC1 [AT9283] + CCNC(=O)c1noc(-c2cc(C(C)C)c(O)cc2O)c1-c1ccc(CN2CCOCC2)cc1 [Luminespib] (partner 0.01 µM)
In short: as §1

[5] = compound: C#Cc1cccc(Nc2ncnc3cc(OCCOC)c(OCCOC)cc23)c1 [Erlotinib] + COc1cc2c(Oc3ccc(NC(=O)C4(C(=O)Nc5ccc(F)cc5)CC4)cc3F)ccnc2cc1OCCCN1CCOCC1 [Foretinib] (partner 0.25 µM)
In short: as §1

Cell Line	relative viability ([1]; first compound 0.003 µM)	relative viability ([1]; first compound 0.03 µM)	relative viability ([1]; first compound 0.09487 µM)	relative viability ([1]; first compound 0.3 µM)	relative viability ([2]; first compound 0.02 µM)	relative viability ([2]; first compound 0.2 µM)	relative viability ([2]; first compound 0.6325 µM)	relative viability ([2]; first compound 2 µM)	relative viability ([3]; first compound 0.003 µM)	relative viability ([3]; first compound 0.03 µM)	relative viability ([3]; first compound 0.09487 µM)	relative viability ([3]; first compound 0.3 µM)	relative viability ([4]; first compound 0.003 µM)	relative viability ([4]; first compound 0.03 µM)	relative viability ([4]; first compound 0.09487 µM)	relative viability ([4]; first compound 0.3 µM)	relative viability ([5]; first compound 0.02 µM)	relative viability ([5]; first compound 0.2 µM)	relative viability ([5]; first compound 0.6325 µM)	relative viability ([5]; first compound 2 µM)
HARA	1.1	0.4	0.105	0.13	1.16	1.08	0.88	0.964	0.499	0.261	0.208	0.0751	0.755	0.189	0.0743	0.124	0.929	0.602	0.636	0.401
HCC-15	0.765	0.478	0.139	0.129	0.735	0.68	0.736	0.617	0.464	0.277	0.106	0.117	0.302	0.234	0.133	0.115	0.996	1.01	1.15	0.934
HCC-827	0.91	0.808	0.41	0.283	0.465	0.167	0.162	0.172	0.399	0.352	0.356	0.196	0.608	0.539	0.328	0.185	0.263	0.158	0.154	0.135
HOP-62	1.13	0.747	0.285	0.167	1.08		1.19	1.05	0.694	0.572	0.418	0.25	0.916	0.783	0.279	0.292	1.22	1.08	1.15	0.89
LC-2-ad	0.44	0.275	0.288	0.238	0.488	0.472	0.397	0.229	0.449	0.363	0.224	0.193	0.918	0.594	0.357	0.263	0.876	0.658	0.665	0.528
LCLC-97TM1	0.273	0.157	0.128	0.121	0.39		0.464	0.391	0.445	0.282	0.152	0.137	0.662	0.634	0.137	0.157	0.894	0.89	0.963	0.791
LK-2	0.255	0.218	0.241	0.251	0.941	0.621	1.04	0.725	0.516	0.156	0.136	0.175	0.195	0.19	0.176	0.206	1.24	0.718	1.46	1.23
LOU-NH91	0.686	0.679	0.52	0.429	0.52	0.38	0.392	0.4	0.658	0.673	0.454	0.371	0.321	0.353	0.358	0.32	0.519	0.524	0.585	
LU99A	0.492	0.28	0.185	0.168	0.937	0.784	0.725	0.746	0.804	0.441	0.17	0.199	0.24	0.301	0.225	0.221	0.861	0.833	0.829	0.678
LXF-289	0.829	0.511	0.151	0.138	0.904	0.991	0.933	0.869	0.528	0.447	0.0782	0.0825	0.731	0.742	0.326	0.144	0.924	0.937		0.874
NCI-H23	0.458	0.326	0.299	0.189	0.894	0.88	1.16	0.596	0.811	0.744	0.413	0.297	0.216	0.234	0.204	0.167	0.909		1.24	0.631
NCI-H322M	0.888	0.611	0.446	0.337	1.12	1.09	0.77	0.468	0.65	0.486	0.414	0.387	0.864	0.541	0.405	0.41	0.925	0.619	0.565	0.45
NCI-H460	0.729	0.786	0.0665	0.0361	1.09	0.867	1.44		0.517	0.508	0.0947	0.0363	0.0366	0.041	0.0309	0.0299	0.973	1.02		0.968
NCI-H520	0.692	0.322	0.285	0.182	1.17	1.11	1.29	1.12	0.572	0.284	0.243	0.174	0.247	0.23	0.204	0.254	0.803	0.926	0.749	0.745
NCI-H596	0.897	0.974	0.966	0.707	1.02	0.751	1.06	0.813	0.743	0.82	0.608	0.564	1.04	1.08	0.819	0.725	0.759	0.847	0.995	0.758
NCI-H647	1.01	0.357	0.201	0.121	1.42	0.955	1.5	0.991	0.525	0.305	0.145	0.0997	0.152	0.201	0.169	0.183	1.13	1.04	1.32	1.04

Cell Line	relative viability ([1]; first compound 0.003 µM)	relative viability ([1]; first compound 0.03 µM)	relative viability ([1]; first compound 0.09487 µM)	relative viability ([1]; first compound 0.3 µM)	relative viability ([2]; first compound 0.02 µM)	relative viability ([2]; first compound 0.2 µM)	relative viability ([2]; first compound 0.6325 µM)	relative viability ([2]; first compound 2 µM)	relative viability ([3]; first compound 0.003 µM)	relative viability ([3]; first compound 0.03 µM)	relative viability ([3]; first compound 0.09487 µM)	relative viability ([3]; first compound 0.3 µM)	relative viability ([4]; first compound 0.003 µM)	relative viability ([4]; first compound 0.03 µM)	relative viability ([4]; first compound 0.09487 µM)	relative viability ([4]; first compound 0.3 µM)	relative viability ([5]; first compound 0.02 µM)	relative viability ([5]; first compound 0.2 µM)	relative viability ([5]; first compound 0.6325 µM)	relative viability ([5]; first compound 2 µM)
NCI-H727	0.813	0.461	0.27	0.323	0.447	0.393	0.384	0.347	0.39	0.447	0.298	0.39	0.253	0.257	0.261	0.281	0.847	0.75	0.813	0.726
NCI-H838	0.877	0.367	0.246	0.186	1.26	1.11	1.27	1.05	0.564	0.23	0.165	0.17	0.341	0.232	0.203	0.22	1.14	0.992	1.09	
NCI-H1355	1.03	0.992	0.529	0.199	1.02	0.9	0.812	0.675	0.478	0.449	0.362	0.238	0.6	0.702	0.375	0.239	1.01	0.821	0.877	0.781
NCI-H1437	1.04	0.732	0.443	0.243		1.15		0.976	0.294	0.263	0.149	0.127	1.26	1.12	0.681	0.344	1.31	1.23	1.24	1.2
NCI-H1650	1.01	0.596	0.267	0.217	1.15	1.23	1.14	0.924	0.491	0.385	0.223	0.175	0.21	0.182	0.219	0.231	0.747	0.594	0.697	0.699
NCI-H1651	0.856	0.897	0.505	0.411	1.04	0.861	1.11	0.934	0.293	0.358	0.277	0.219	0.725	0.826	0.773	0.623	0.704	0.753		0.753
NCI-H1666	1.08	0.777	0.377	0.311	0.999	0.817	0.407	0.347	0.587	0.516	0.404	0.35	1.03	0.726	0.557	0.499	1.06	0.86	0.802	0.767
NCI-H1734	0.725	0.335	0.246	0.216	0.852	0.795	0.907	0.75	0.334	0.278	0.243	0.203	0.221	0.145	0.165	0.18	0.789		0.921	0.768
NCI-H1755	0.891	0.718	0.433	0.385	1.02	1	0.976		0.579	0.626	0.394	0.422	0.607	0.446	0.553	0.407	0.942	0.936	0.916	0.907
NCI-H1915	0.842	0.826	0.226	0.255	0.865	0.807	0.841	0.745	0.362	0.342	0.174	0.168	0.729	0.751	0.187	0.213	1.08	1.2	1.12	1.1
NCI-H1944	0.9	0.648	0.257	0.294	0.989	0.912	0.941	0.796	0.201	0.171	0.122	0.136	0.778	0.483	0.195	0.205	0.833	0.54	0.579	0.56
NCI-H1975	0.945	0.903	0.695	0.348	1.11	1.07	1.07	0.977	0.418	0.403	0.356	0.183	0.198	0.243	0.215	0.132	0.951	1.02		0.71
NCI-H1993	0.915	0.654	0.572	0.543	0.848	0.725	0.786	0.722	0.474	0.496	0.431	0.408	0.977	0.521	0.523	0.45	0.772	0.736	0.578	0.716
NCI-H2009	0.967	0.446	0.26	0.248	1.25	1.24	1.24	1.19	0.525	0.384	0.309	0.145	1.04	0.978	0.736	0.325	1.28	1.24	1.36	1.23
NCI-H2023	0.704	0.471	0.196	0.123	1.01	1.02	0.916	0.837	0.448	0.389	0.193	0.131	0.954	0.742	0.361	0.11	0.754	0.607	0.589	0.406
